Reference: patent publication US20230016424A1, “HYBRID AMIDE DERIVATIVES OF AMPHOTERICIN B” (The Board of Trustees of the University of Illinois, priority 2019, published 2023)

tested on: C. albicans SN250, C. albicans, C. krusei, C. glabrata, C. tropicalis, A. fumigatus 91, 1163, 1100; assay: Average MIC over the tested strains; type: cell-based; conditions: Table 7, C16 amide AmB variants

Structure (SMILES)	MIC (Average Minimum Inhibition Concentration) [µM]
CC1C=CC=CC=CC=CC=CC=CC=CC(OC2OC(C)C(O)C(N)C2O)CC2OC(O)(CC(O)CC(O)C(O)CCC(O)CC(O)CC(=O)OC(C)C(C)C1O)CC(O)C2C(=O)NCCOC(F)F (centres unmarked) [EW]	0.500
CC1C=CC=CC=CC=CC=CC=CC=CC(OC2OC(C)C(O)C(N)C2O)CC2OC(O)(CC(O)CC(O)C(O)CCC(O)CC(O)CC(=O)OC(C)C(C)C1O)CC(O)C2C(=O)NCCCCO (centres unmarked) [EY]	0.500
CC1C=CC=CC=CC=CC=CC=CC=CC(OC2OC(C)C(O)C(N)C2O)CC2OC(O)(CC(O)CC(O)C(O)CCC(O)CC(O)CC(=O)OC(C)C(C)C1O)CC(O)C2C(=O)NCC1CCCO1 (centres unmarked) [EZ]	0.516
O=CO [FA]	0.516
CC1C=CC=CC=CC=CC=CC=CC=CC(OC2OC(C)C(O)C(N)C2O)CC2OC(O)(CC(O)CC(O)C(O)CCC(O)CC(O)CC(=O)OC(C)C(C)C1O)CC(O)C2C(=O)NC1CN(C(N)=O)C1 (centres unmarked) [FB]	0.516
COC(=O)C1(NC(=O)C2C(O)CC3(O)CC(O)CC(O)C(O)CCC(O)CC(O)CC(=O)OC(C)C(C)C(O)C(C)C=CC=CC=CC=CC=CC=CC=CC(OC4OC(C)C(O)C(N)C4O)CC2O3)CNC1 (centres unmarked) [FC]	0.516
CC1C=CC=CC=CC=CC=CC=CC=CC(OC2OC(C)C(O)C(N)C2O)CC2OC(O)(CC(O)CC(O)C(O)CCC(O)CC(O)CC(=O)OC(C)C(C)C1O)CC(O)C2C(=O)NCCOCC(N)=O (centres unmarked) [FD]	0.516
CC1C=CC=CC=CC=CC=CC=CC=CC(OC2OC(C)C(O)C(N)C2O)CC2OC(O)(CC(O)CC(O)C(O)CCC(O)CC(O)CC(=O)OC(C)C(C)C1O)CC(O)C2C(=O)N1CCC(N)C1 (centres unmarked) [FE]	0.531
CC1C=CC=CC=CC=CC=CC=CC=CC(OC2OC(C)C(O)C(N)C2O)CC2OC(O)(CC(O)CC(O)C(O)CCC(O)CC(O)CC(=O)OC(C)C(C)C1O)CC(O)C2C(=O)NCCCCCO (centres unmarked) [FF]	0.531
CC1C=CC=CC=CC=CC=CC=CC=CC(OC2OC(C)C(O)C(N)C2O)CC2OC(O)(CC(O)CC(O)C(O)CCC(O)CC(O)CC(=O)OC(C)C(C)C1O)CC(O)C2C(=O)NC1(C(N)=O)CC1 (centres unmarked) [FG]	0.531
CC1C=CC=CC=CC=CC=CC=CC=CC(OC2OC(C)C(O)C(N)C2O)CC2OC(O)(CC(O)CC(O)C(O)CCC(O)CC(O)CC(=O)OC(C)C(C)C1O)CC(O)C2C(=O)N1CCNC(=O)C1 (centres unmarked) [FH]	0.531
CC1C=CC=CC=CC=CC=CC=CC=CC(OC2OC(C)C(O)C(N)C2O)CC2OC(O)(CC(O)CC(O)C(O)CCC(O)CC(O)CC(=O)OC(C)C(C)C1O)CC(O)C2C(=O)NC1CC(N)C(O)C(O)C1O (centres unmarked) [FI]	0.172
CC(O)CNC(=O)C1C(O)CC2(O)CC(O)CC(O)C(O)CCC(O)CC(O)CC(=O)OC(C)C(C)C(O)C(C)C=CC=CC=CC=CC=CC=CC=CC(OC3OC(C)C(O)C(N)C3O)CC1O2 (centres unmarked) [FJ]	0.195
CC1C=CC=CC=CC=CC=CC=CC=CC(OC2OC(C)C(O)C(N)C2O)CC2OC(O)(CC(O)CC(O)C(O)CCC(O)CC(O)CC(=O)OC(C)C(C)C1O)CC(O)C2C(=O)NC1C(O)OC(CO)C(O)C1O (centres unmarked) [FL]	0.227
CC1C=CC=CC=CC=CC=CC=CC=CC(OC2OC(C)C(O)C(N)C2O)CC2OC(O)(CC(O)CC(O)C(O)CCC(O)CC(O)CC(=O)OC(C)C(C)C1O)CC(O)C2C(=O)NC(CO)C(N)=O (centres unmarked) [FN]	0.238
CC1C=CC=CC=CC=CC=CC=CC=CC(OC2OC(C)C(O)C(N)C2O)CC2OC(O)(CC(O)CC(O)C(O)CCC(O)CC(O)CC(=O)OC(C)C(C)C1O)CC(O)C2C(=O)NC1CC(CO)C(O)C1O (centres unmarked) [FS]	2.81
CC1C=CC=CC=CC=CC=CC=CC=CC(OC2OC(C)C(O)C(N)C2O)CC2OC(O)(CC(O)CC(O)C(O)CCC(O)CC(O)CC(=O)OC(C)C(C)C1O)CC(O)C2C(=O)NC1C(O)C(O)OC(CO)C1O (centres unmarked) [FT]	0.289
CC1C=CC=CC=CC=CC=CC=CC=CC(OC2OC(C)C(O)C(N)C2O)CC2OC(O)(CC(O)CC(O)C(O)CCC(O)CC(O)CC(=O)OC(C)C(C)C1O)CC(O)C2C(=O)NC1C(O)OCC(O)C1O (centres unmarked) [FU]	0.289
CC1C=CC=CC=CC=CC=CC=CC=CC(OC2OC(C)C(O)C(N)C2O)CC2OC(O)(CC(O)CC(O)C(O)CCC(O)CC(O)CC(=O)OC(C)C(C)C1O)CC(O)C2C(=O)NCC(O)C(O)C(O)C(O)CO (centres unmarked) [FW]	0.313
CC1C=CC=CC=CC=CC=CC=CC=CC(OC2OC(C)C(O)C(N)C2O)CC2OC(O)(CC(O)CC(O)C(O)CCC(O)CC(O)CC(=O)OC(C)C(C)C1O)CC(O)C2C(=O)NCCn1cncn1 (centres unmarked) [FY]	0.316
CC1C=CC=CC=CC=CC=CC=CC=CC(OC2OC(C)C(O)C(N)C2O)CC2OC(O)(CC(O)CC(O)C(O)CCC(O)CC(O)CC(=O)OC(C)C(C)C1O)CC(O)C2C(=O)NC(CC(N)=O)C(N)=O (centres unmarked) [FZ]	0.316
CC1C=CC=CC=CC=CC=CC=CC=CC(OC2OC(C)C(O)C(N)C2O)CC2OC(O)(CC(O)CC(O)C(O)CCC(O)CC(O)CC(=O)OC(C)C(C)C1O)CC(O)C2C(=O)NCCCO (centres unmarked) [GA]	0.320
CC1C=CC=CC=CC=CC=CC=CC=CC(OC2OC(C)C(O)C(N)C2O)CC2OC(O)(CC(O)CC(O)C(O)CCC(O)CC(O)CC(=O)OC(C)C(C)C1O)CC(O)C2C(=O)NC1CCNC1=O (centres unmarked) [GC]	0.320
CC1C=CC=CC=CC=CC=CC=CC=CC(OC2OC(C)C(O)C(N)C2O)CC2OC(O)(CC(O)CC(O)C(O)CCC(O)CC(O)CC(=O)OC(C)C(C)C1O)CC(O)C2C(=O)NC(CO)C(N)=O (centres unmarked) [GF]	0.324
CC1C=CC=CC=CC=CC=CC=CC=CC(OC2OC(C)C(O)C(N)C2O)CC2OC(O)(CC(O)CC(O)C(O)CCC(O)CC(O)CC(=O)OC(C)C(C)C1O)CC(O)C2C(=O)NC1(C(N)=O)CNC1 (centres unmarked) [GG]	0.328
CC1C=CC=CC=CC=CC=CC=CC=CC(OC2OC(C)C(O)C(N)C2O)CC2OC(O)(CC(O)CC(O)C(O)CCC(O)CC(O)CC(=O)OC(C)C(C)C1O)CC(O)C2C(=O)NCC(O)CO (centres unmarked) [GH]	0.329
CNC(=O)C1C(O)CC2(O)CC(O)CC(O)C(O)CCC(O)CC(O)CC(=O)OC(C)C(C)C(O)C(C)C=CC=CC=CC=CC=CC=CC=CC(OC3OC(C)C(O)C(N)C3O)CC1O2 (centres unmarked) [GI]	0.336
CC(NC(=O)C1C(O)CC2(O)CC(O)CC(O)C(O)CCC(O)CC(O)CC(=O)OC(C)C(C)C(O)C(C)C=CC=CC=CC=CC=CC=CC=CC(OC3OC(C)C(O)C(N)C3O)CC1O2)C(N)=O (centres unmarked) [GJ]	0.336
CC1C=CC=CC=CC=CC=CC=CC=CC(OC2OC(C)C(O)C(N)C2O)CC2OC(O)(CC(O)CC(O)C(O)CCC(O)CC(O)CC(=O)OC(C)C(C)C1O)CC(O)C2C(=O)NC1CCCC(O)C1 (centres unmarked) [GM]	0.344
